As a reminder, the EC50 is the concentration that produces a half-maximal response. The term amount remaining denotes what is left of the initial amount, in per cent.

The values that follow come from patent publication US20260001928A1 (CORTERIA PHARMACEUTICALS, priority 2022, published 2026).

*1 amine or outer side, *2 acyl side, *3 side chain or, on linkers, in order; H or OH if unused. Where a SMILES comes first, the peptide text is derived from it. Side-chain parts run from the residue outwards. [ ]: non-standard residue; d: D form. The star is where a group is joined. C20 diacid = O=C(O)CCCCCCCCCCCCCCCCCCC(=O)*; C18 diacid = O=C(O)CCCCCCCCCCCCCCCCC(=O)*; C16 diacid = O=C(O)CCCCCCCCCCCCCCC(=O)*; γGlu = O=C(O)[C@H](CCC(=O)[*:2])N[*:1]; NMeI = CC[C@H](C)[C@H](NC)C(=O)O; Pentanoyl = CCCCC(=O)*; AEEA = NCCOCCOCC(=O)O; Ac3c = NC1(C(=O)O)CC1; Aib = CC(C)(N)C(=O)O A value given as a limit tells only on which side of the number the result lay.

The target of one data set is T1, CFR1R receptor (Homo sapiens, UniProt P34998).
T1 construct: host or cells: CHO-K1 (clone 2)
T1 sequence (P34998 24-415): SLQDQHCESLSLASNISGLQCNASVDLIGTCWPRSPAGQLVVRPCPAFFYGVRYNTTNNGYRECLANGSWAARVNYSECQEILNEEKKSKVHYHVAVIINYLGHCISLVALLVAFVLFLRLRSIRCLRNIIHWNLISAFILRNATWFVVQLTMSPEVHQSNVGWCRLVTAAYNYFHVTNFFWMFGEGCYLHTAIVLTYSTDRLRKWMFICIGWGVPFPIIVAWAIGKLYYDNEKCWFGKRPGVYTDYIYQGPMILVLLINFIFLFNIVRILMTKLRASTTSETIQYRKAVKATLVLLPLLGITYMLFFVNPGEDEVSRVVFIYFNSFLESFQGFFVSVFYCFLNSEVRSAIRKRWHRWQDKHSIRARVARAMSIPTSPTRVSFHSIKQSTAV
As to the kind of experiment: Activity at anti-target CFR1R receptor, cAMP assay in CRF1R-overexpression CHO-K1 cells. The format is cell-based. The note with it: 100% = Sauvagine at 100 nM; for EC50: cAMP. A digest of the protocol: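 Uses frozen stocks of CHO-K1 clone 2 cells overexpressing human CRF1R, plated at 4000 cells/well final, with cAMP measured by the same protocol as the TeloHAEC line. Full-activation control: 100 nM Sauvagine.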
On the technique in general: cAMP levels reflect the balance of adenylyl cyclase and phosphodiesterase activity.

Another data set addresses T2, human CRF2a receptor (Homo sapiens, UniProt Q13324).
T2 construct: expressed in transfected cells; host or cells: TeloHEAC cells
T2 sequence (Q13324 1-411): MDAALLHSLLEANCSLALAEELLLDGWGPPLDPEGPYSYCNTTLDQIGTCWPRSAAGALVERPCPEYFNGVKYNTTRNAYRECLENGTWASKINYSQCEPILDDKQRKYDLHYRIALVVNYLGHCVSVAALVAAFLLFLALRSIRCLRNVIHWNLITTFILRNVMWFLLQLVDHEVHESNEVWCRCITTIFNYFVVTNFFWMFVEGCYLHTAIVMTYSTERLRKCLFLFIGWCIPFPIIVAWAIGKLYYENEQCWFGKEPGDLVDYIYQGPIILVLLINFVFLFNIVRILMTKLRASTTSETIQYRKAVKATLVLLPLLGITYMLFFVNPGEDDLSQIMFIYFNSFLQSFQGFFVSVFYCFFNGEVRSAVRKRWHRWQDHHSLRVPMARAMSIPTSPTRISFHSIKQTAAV
Description: Activity at human CRF2a receptor, cAMP functional assay in TeloHEAC cells. The data set is classed as cell-based. The note with it: TeloHEAC cells stably expressing human CRF2a receptor, relative to urocortin 2 (100 nM = 100%). A digest of the protocol:
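TeloHEAC cells stably expressing human CRF2a (10000 cells/well) were treated with 16-point 1:2 compound dilutions in HBSS/20 mM HEPES with IBMX for 30 min at 37° C. cAMP was read by HTRF (665/620 nm ratio). EC50 was the concentration giving 50% activation, with 100 nM urocortin 2 set as 100%.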

Data set [1] in a line: In vitro subcutaneous tissue supernatant (SCts) stability and metabolite identification, rat. The format is in vitro ADME. The arrangement: remaining at 2 h: dose or concentration left out as unconfirmed. The note with it: male, Sprague Dawley; rat subcutaneous tissue supernatant (SCts), 37° C, 2 h. The procedure: In vitro metabolic stability in subcutaneous tissue supernatant (SCts) was studied in male Sprague Dawley rats. Test compounds were incubated […] for 2 hours at 37° C.
Software aided in vitro metabolite identification on SCts stability samples was performed using either Metabolite Pilot (Sciex) or Biopharma Finder (Thermo). In addition, metabolite identification using Metabolite Pilot was performed on plasma samples of Comp Y following SC administration to rat at 1 mg/kg.

Data set [2] in a line: Chemical stability in buffer (pH 7.4 / pH 4.5), % purity loss. The format is physicochemical. Conditions: 40° C. vs 5° C., 14 or 28 days; for Buffer stability pH 4.5 % purity loss: 100 mM acetate buffer pH 4.5; for Buffer stability pH 7.4 % purity loss: 100 mM phosphate buffer pH 7.4. In outline: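 LC-UV gave % loss after 14 or 28 days of storage at 5 °C or 40 °C. Samples were diluted supernatants from compound incubated 1 h at room temperature at 10 mg/mL target, in 100 mM acetate pH 4.5 or 100 mM phosphate pH 7.4.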

As to `CCCCC(=O)N[C@H](C(=O)N[C@@H](CC(C)C)C(=O)N[C@@H](CO)C(=O)N[C@@H](CC(C)C)C(=O)N[C@@H](CC(=O)O)C(=O)N[C@@H](C(=O)N1CCC[C@H]1C(=O)N[C@H](C(=O)N[C@@H](CCCCN)C(=O)N[C@@H](CC(C)C)C(=O)N[C@@H](CCCCNC(=O)COCCOCCNC(=O)COCCOCCNC(=O)CC[C@H](NC(=O)CCCCCCCCCCCCCCCCC(=O)O)C(=O)O)C(=O)N[C@@H](CCCCN)C(=O)N[C@H](C(=O)N[C@@H](CC(C)C)C(=O)N[C@@H](CC(C)C)C(=O)N[C@@H](CCC(=O)O)C(=O)N[C@@H](CCC(N)=O)C(=O)N[C@@H](CCC(=O)O)C(=O)N[C@@H](CCCCN)C(=O)N[C@@H](CCC(N)=O)C(=O)N[C@@H](CCCCN)C(=O)N[C@@H](CCCCN)C(=O)N[C@@H](CCC(N)=O)C(=O)N[C@@H](CCCNC(=N)N)C(=O)N[C@@H](CCC(=O)O)C(=O)N[C@@H](CCC(N)=O)C(=O)N[C@@H](C)C(=O)N[C@@H](CCC(=O)O)C(=O)N[C@H](C(=O)N[C@@H](CC(N)=O)C(=O)N[C@H](C(=O)N[C@@H](CCC(N)=O)C(=O)N[C@H](C(=O)N[C@@H](CC(C)C)C(=O)N[C@@H](C)C(=O)N[C@@H](CCC(N)=O)C(=O)N[C@H](C(N)=O)C(C)C)[C@@H](C)CC)C(C)C)[C@@H](C)O)[C@@H](C)CC)[C@@H](C)CC)C(C)C)C(C)C` [compound 121] (Pentanoyl-VLSLD[dV]PIKLK([AEEA-AEEA-γGlu-C18 diacid])KILLEQEKQKKQREQAETNVQILAQV-NH2), on CFR1R receptor, the “Emax (% I)” value is on record as 6 % I and the EC50 was greater than 250 nM. At human CRF2a receptor, the response was half-maximal at 5.76 nM (EC50). For the same compound, the amount remaining at 2 h in data set [1] was 77%.
Regarding `CC[C@H](C)[C@H](NC(C)=O)C(=O)N[C@H](C(=O)N[C@@H](CC(C)C)C(=O)N[C@@H](CO)C(=O)N[C@@H](CC(C)C)C(=O)N[C@@H](CC(=O)O)C(=O)N[C@@H](C(=O)N1CCC[C@H]1C(=O)N[C@H](C(=O)N[C@@H](CCCCN)C(=O)N[C@@H](CC(C)C)C(=O)N[C@@H](CCCCNC(=O)CC[C@H](NC(=O)CCCCCCCCCCCCCCCCC(=O)O)C(=O)O)C(=O)N[C@@H](CCCCN)C(=O)N[C@H](C(=O)N[C@@H](CC(C)C)C(=O)N[C@@H](CC(C)C)C(=O)N[C@@H](CCC(=O)O)C(=O)N[C@@H](CCC(N)=O)C(=O)N[C@@H](CCC(=O)O)C(=O)N[C@@H](CCCCN)C(=O)N[C@@H](CCC(N)=O)C(=O)N[C@@H](CCCCN)C(=O)N[C@@H](CCCCN)C(=O)N[C@@H](CCC(N)=O)C(=O)N[C@@H](CCCNC(=N)N)C(=O)N[C@@H](CCC(=O)O)C(=O)N[C@@H](CCC(N)=O)C(=O)N[C@@H](C)C(=O)N[C@@H](CCC(=O)O)C(=O)N[C@H](C(=O)N[C@@H](CC(N)=O)C(=O)NC1(C(=O)N[C@@H](CCC(N)=O)C(=O)N[C@H](C(=O)N[C@@H](CC(C)C)C(=O)N[C@@H](C)C(=O)N[C@@H](CCC(N)=O)C(=O)N[C@H](C(N)=O)C(C)C)[C@@H](C)CC)CC1)[C@@H](C)O)[C@@H](C)CC)[C@@H](C)CC)C(C)C)C(C)C` [compound 136] (Ac-IVLSLD[dV]PIKLK([γGlu-C18 diacid])KILLEQEKQKKQREQAETN[Ac3c]QILAQV-NH2), on CFR1R receptor, the “Emax (% I)” value came to 5 % I and the EC50 is greater than 250 nM. This compound also registered an EC50 on human CRF2a receptor of 0.16 nM. In addition, in data set [2], the “Buffer stability pH 4.5 % purity loss” value is 0.0% and the “Buffer stability pH 7.4 % purity loss” value is given as 24.3%. In addition, in data set [1], the fraction remaining at 2 h came out at 78%.
Regarding `CC[C@H](C)[C@H](NC(C)=O)C(=O)N[C@H](C(=O)N[C@@H](CC(C)C)C(=O)N[C@@H](CO)C(=O)N[C@@H](CC(C)C)C(=O)N[C@@H](CC(=O)O)C(=O)N[C@@H](C(=O)N1CCC[C@H]1C(=O)N[C@H](C(=O)N[C@@H](CCCCN)C(=O)N[C@@H](CC(C)C)C(=O)N[C@@H](CCCCNC(=O)CC[C@H](NC(=O)CCCCCCCCCCCCCCC(=O)O)C(=O)O)C(=O)N[C@@H](CCCCN)C(=O)N[C@H](C(=O)N[C@@H](CC(C)C)C(=O)N[C@@H](CC(C)C)C(=O)N[C@@H](CCC(=O)O)C(=O)N[C@@H](CCC(N)=O)C(=O)N[C@@H](CCC(=O)O)C(=O)N[C@@H](CCCCN)C(=O)N[C@@H](CCC(N)=O)C(=O)N[C@@H](CCCCN)C(=O)N[C@@H](C)C(=O)N[C@@H](CCC(N)=O)C(=O)N[C@@H](CCCNC(=N)N)C(=O)N[C@@H](CCC(=O)O)C(=O)N[C@@H](CCC(N)=O)C(=O)N[C@@H](C)C(=O)N[C@@H](CCC(=O)O)C(=O)N[C@H](C(=O)N[C@@H](CC(N)=O)C(=O)NC(C)(C)C(=O)N[C@@H](CCC(N)=O)C(=O)N[C@H](C(=O)N[C@@H](CC(C)C)C(=O)N[C@@H](C)C(=O)N[C@@H](CCC(N)=O)C(=O)N[C@H](C(N)=O)C(C)C)[C@@H](C)CC)[C@@H](C)O)[C@@H](C)CC)[C@@H](C)CC)C(C)C)C(C)C` [compound 161] (Ac-IVLSLD[dV]PIKLK([γGlu-C16 diacid])KILLEQEKQKAQREQAETN[Aib]QILAQV-NH2), the “Emax (% I)” value on CFR1R receptor worked out at 3 % I. Besides, the EC50 is greater than 250 nM on CFR1R receptor and 0.32 nM at human CRF2a receptor. In addition, in data set [2], the “Buffer stability pH 7.4 % purity loss” value is reported as 0.6/Not Tested %. Further, the fraction remaining at 2 h in data set [1] was 59%.
With `CC[C@H](C)[C@H](NC)C(=O)N[C@H](C(=O)N[C@@H](CC(C)C)C(=O)N[C@@H](CO)C(=O)N[C@@H](CC(C)C)C(=O)N[C@@H](CC(=O)O)C(=O)N[C@@H](C(=O)N1CCC[C@H]1C(=O)N[C@H](C(=O)N[C@@H](CCCCN)C(=O)N[C@@H](CC(C)C)C(=O)N[C@@H](CCCCNC(=O)CC[C@H](NC(=O)CCCCCCCCCCCCCCCCCCC(=O)O)C(=O)O)C(=O)N[C@@H](CCCCN)C(=O)N[C@H](C(=O)N[C@@H](CC(C)C)C(=O)N[C@@H](CC(C)C)C(=O)N[C@@H](CCC(=O)O)C(=O)N[C@@H](CCC(N)=O)C(=O)N[C@@H](CCC(=O)O)C(=O)N[C@@H](CCCCN)C(=O)N[C@@H](CCC(N)=O)C(=O)N[C@@H](CCCCN)C(=O)N[C@@H](CCCCN)C(=O)N[C@@H](CCC(N)=O)C(=O)N[C@@H](CCCNC(=N)N)C(=O)N[C@@H](CCC(=O)O)C(=O)N[C@@H](CCC(N)=O)C(=O)N[C@@H](C)C(=O)N[C@@H](CCC(=O)O)C(=O)N[C@H](C(=O)N[C@@H](CC(N)=O)C(=O)NC(C)(C)C(=O)N[C@@H](CCC(N)=O)C(=O)N[C@H](C(=O)N[C@@H](CC(C)C)C(=O)N[C@@H](C)C(=O)N[C@@H](CCC(N)=O)C(=O)N[C@H](C(N)=O)C(C)C)[C@@H](C)CC)[C@@H](C)O)[C@@H](C)CC)[C@@H](C)CC)C(C)C)C(C)C` [compound 214] (H-[NMeI]VLSLD[dV]PIKLK([γGlu-C20 diacid])KILLEQEKQKKQREQAETN[Aib]QILAQV-NH2), at CFR1R receptor, the “Emax (% I)” value is 34 % I and the EC50 was greater than 250 nM. The compound also had an EC50 at human CRF2a receptor of 0.12 nM. Further, in data set [2], the “Buffer stability pH 4.5 % purity loss” value was 0.0/0.0 ^ % and the “Buffer stability pH 7.4 % purity loss” value was 0.0/0.0 ^ %. For the same compound, the share remaining at 2 h in data set [1] was 72%.
